Measured values from ChEMBL document CHEMBL1201862, “PubChem BioAssay data set” (2004).
Calls of active or inactive are those of the source.

Tests used:
[1] = THP-1 cell cytotoxicity, dose response, cytotoxicity control for Vif-APOBEC3G degradation inhibitor project, THP-1 cells (AID 1117359); type: functional; conditions: Human immunodeficiency virus 1, THP-1
[2] = target: Paired box protein Pax-8 (Homo sapiens, UniProt Q06710); test: inhibitors of PAX8-driven TPO luciferase reporter, dose response, RMG-I cells, cherry-pick (AID 687027); type: functional, cell-based;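 note: luciferase reporter driven by Pax8 target thyroperoxidase promoter measured by SteadyGlo luminescence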
Sequence of Paired box protein Pax-8 (Q06710 whole entry): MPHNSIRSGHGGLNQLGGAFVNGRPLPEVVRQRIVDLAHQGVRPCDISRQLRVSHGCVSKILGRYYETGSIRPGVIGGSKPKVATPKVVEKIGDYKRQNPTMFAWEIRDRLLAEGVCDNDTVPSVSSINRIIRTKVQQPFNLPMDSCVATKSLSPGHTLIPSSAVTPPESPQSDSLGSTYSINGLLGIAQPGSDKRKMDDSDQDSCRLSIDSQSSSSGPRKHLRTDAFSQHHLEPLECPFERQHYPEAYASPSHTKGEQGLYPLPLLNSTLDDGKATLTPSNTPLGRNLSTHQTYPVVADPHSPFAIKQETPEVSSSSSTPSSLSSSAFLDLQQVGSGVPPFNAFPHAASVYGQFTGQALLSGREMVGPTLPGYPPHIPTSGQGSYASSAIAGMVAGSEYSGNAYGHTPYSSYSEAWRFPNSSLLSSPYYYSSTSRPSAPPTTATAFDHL

[3] = NIH:OVCAR-3 ovarian cancer cell cytotoxicity, dose response, PAX8 inhibitor project, plate reader, dry powder samples (AID 743044); type: functional, cell-based
[4] = IGROV1 ovarian cancer cell cytotoxicity, dose response, PAX8 inhibitor project, plate reader, dry powder samples (AID 743043); type: functional, cell-based; conditions: IGROV-1
[5] = cytotoxicity in OVCAR8 ovarian cancer cells, dose response, PAX8 project, cell-based, plate reader, dry powder samples (AID 743197); type: functional; conditions: OVCAR-8
[6] = non-specific cell cytotoxicity, dose response, cytotoxicity control for PAX8 inhibitor project, plate reader, dry powder samples (AID 743021); type: functional, cell-based
[7] = IOSE-T80 ovarian epithelial cell cytotoxicity, dose response, cytotoxicity control for PAX8 inhibitor project, plate reader, dry powder samples (AID 743045); type: functional, cell-based
[8] = A2780 ovarian cancer cell cytotoxicity, dose response, cytotoxicity control, plate reader, dry powder samples (AID 743046); type: functional, cell-based
[9] = P. falciparum Dd2 growth inhibitors, dose response, SYBR Green, dry powder samples (AID 1159566); type: functional, cell-based;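 note: potency for growth inhibition with lower SYBR green DNA signal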
[10] = P. falciparum Dd2 growth inhibitors, dose response, SYBR Green, cherry-picked samples (AID 1159567); type: functional, cell-based
[11] = Plasmodium falciparum Dd2 Sybr green parasite growth Measured in Cell-Based and Microorganism Combination System Using Plate Reader - 2153-01_Inhibitor_Dose_DryPowder_Activity_Set3.; type: functional
[12] = P. falciparum 3D7-ScDHODH growth inhibitors, dose response, SYBR Green, dry powder samples (AID 1159570); type: functional, cell-based;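 note: parasite growth measured after 72 hours of compound exposure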
[13] = P. falciparum Dd2 growth inhibitors, dose response, SYBR Green, dry powder samples, set 9 (AID 1159568); type: functional, cell-based
[14] = P. falciparum ATP4 D1247Y mutant growth inhibitors, dose response, NITD609-resistant line, SYBR Green, dry powder (AID 1159571); type: functional, cell-based;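 note: parasites synchronized at ring stage by sorbitol before testing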
[15] = A375 melanoma cell cytotoxicity, dose response, counter-screen for MITF inhibitor project, CellTiter-Glo luminescence, dry powder, set 2 (AID 624489); type: functional, cell-based; conditions: A-375;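 note: actives are compounds lowering A375 viability meaning general cytotoxicity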
[16] = A375 melanoma cell viability loss, dose response, counter-screen for MITF inhibitor project, CellTiter-Glo luminescence, dry powder, set 4 (AID 624364); type: functional, cell-based; conditions: A-375;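 note: A375 melanoma cells are MITF independent so this is a counter screen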
[17] = target: Metabotropic glutamate receptor 5 (Rattus norvegicus, UniProt P31424); test: Identification of a glycine sulfonamide based non-MPEP site positive allosteric potentiator (PAM) of mGlu5 (calcium_assay).; type: functional
Sequence of Metabotropic glutamate receptor 5 (P31424 whole entry): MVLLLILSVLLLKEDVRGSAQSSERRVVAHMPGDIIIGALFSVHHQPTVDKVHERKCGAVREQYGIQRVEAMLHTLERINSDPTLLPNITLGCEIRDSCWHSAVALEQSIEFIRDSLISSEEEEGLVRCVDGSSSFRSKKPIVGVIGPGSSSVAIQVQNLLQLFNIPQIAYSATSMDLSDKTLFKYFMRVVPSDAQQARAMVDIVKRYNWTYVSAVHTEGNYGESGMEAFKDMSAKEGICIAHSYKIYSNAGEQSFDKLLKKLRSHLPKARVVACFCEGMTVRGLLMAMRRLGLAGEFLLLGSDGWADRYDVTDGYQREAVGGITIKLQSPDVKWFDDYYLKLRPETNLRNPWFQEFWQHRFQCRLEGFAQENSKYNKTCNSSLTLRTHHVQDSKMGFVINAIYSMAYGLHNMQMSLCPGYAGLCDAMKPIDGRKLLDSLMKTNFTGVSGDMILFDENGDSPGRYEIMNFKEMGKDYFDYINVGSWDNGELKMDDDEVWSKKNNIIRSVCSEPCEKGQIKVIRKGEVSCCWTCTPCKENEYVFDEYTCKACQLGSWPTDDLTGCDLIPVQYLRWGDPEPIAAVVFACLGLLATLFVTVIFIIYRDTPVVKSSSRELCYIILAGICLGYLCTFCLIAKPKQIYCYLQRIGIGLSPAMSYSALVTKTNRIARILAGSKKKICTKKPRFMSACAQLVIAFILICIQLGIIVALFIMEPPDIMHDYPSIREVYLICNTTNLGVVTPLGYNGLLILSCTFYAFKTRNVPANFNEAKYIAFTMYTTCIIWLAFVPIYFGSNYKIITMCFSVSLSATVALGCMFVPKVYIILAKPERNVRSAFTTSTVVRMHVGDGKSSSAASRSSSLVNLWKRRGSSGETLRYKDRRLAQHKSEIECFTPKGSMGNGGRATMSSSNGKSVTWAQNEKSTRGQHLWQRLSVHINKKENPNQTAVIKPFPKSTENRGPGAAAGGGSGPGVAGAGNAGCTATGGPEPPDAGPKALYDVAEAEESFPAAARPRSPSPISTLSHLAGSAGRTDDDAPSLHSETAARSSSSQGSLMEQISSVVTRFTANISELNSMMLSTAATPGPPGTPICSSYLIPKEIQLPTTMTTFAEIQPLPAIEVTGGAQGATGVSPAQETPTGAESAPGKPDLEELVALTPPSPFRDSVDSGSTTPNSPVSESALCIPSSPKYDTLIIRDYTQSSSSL

[18] = target: Mitogen-activated protein kinase 10 (Homo sapiens, UniProt P53779); test: Dose response biochemical screening assay for inhibitors of c-Jun N-Terminal Kinase 3 (JNK3). [Related pubchem assays: 746 ]
Sequence of Mitogen-activated protein kinase 10 (P53779 whole entry): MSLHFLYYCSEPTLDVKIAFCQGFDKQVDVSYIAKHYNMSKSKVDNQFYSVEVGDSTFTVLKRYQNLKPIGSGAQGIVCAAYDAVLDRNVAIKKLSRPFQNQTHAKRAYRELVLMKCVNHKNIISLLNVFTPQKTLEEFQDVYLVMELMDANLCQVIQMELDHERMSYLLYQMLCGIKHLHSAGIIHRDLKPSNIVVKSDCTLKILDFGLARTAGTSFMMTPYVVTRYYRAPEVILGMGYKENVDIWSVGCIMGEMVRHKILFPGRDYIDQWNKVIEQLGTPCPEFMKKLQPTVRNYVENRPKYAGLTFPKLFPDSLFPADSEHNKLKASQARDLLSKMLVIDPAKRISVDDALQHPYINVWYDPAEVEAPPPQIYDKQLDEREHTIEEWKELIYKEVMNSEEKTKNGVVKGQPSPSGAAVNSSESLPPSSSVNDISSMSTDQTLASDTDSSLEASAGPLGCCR

[19] = HepG2 cell cytotoxicity, dose response, cytotoxicity control, cherry-picked samples (AID 1159577); type: functional, cell-based
[20] = HepG2 cell cytotoxicity, dose response, cytotoxicity control, plate reader, dry powder samples (AID 1159569); type: functional, cell-based;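 note: inhibitor potency with signal falling toward the positive control level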

Question: Which CC50 [1] does the source give for `CC12CCC(C(=O)Nc3cc(F)ccc3F)(CC1=O)C2(C)C` (stereo unspecified) here?
Answer: > 40 µM (active)

Question: For `COc1ccc(NC(=O)N2C[C@@H]3N[C@H](C2)[C@@H]3c2ccc(-c3ccc(OC)cc3)cc2)cc1`, which AC50 [2] is on record?
Answer: 13.7 µM (active)

Question: What about the AC50 [3] of the same molecule?
Answer: 46.6 µM (active)

Question: And the AC50 [4]?
Answer: 26.6 µM (active)

Question: And the AC50 [5]?
Answer: 48.5 µM (active)

Question: What about the AC50 [6] of the same molecule?
Answer: 32.5 µM (active)

Question: What about the AC50 [7] of the same molecule?
Answer: 23.3 µM (active)

Question: Which results are given for `C[C@@H]1CN([C@@H](C)CO)C(=O)c2cc(NC(=O)Nc3ccc(F)cc3)ccc2O[C@@H](C)CCCCO[C@@H]1CN(C)Cc1ccc(C(F)(F)F)cc1`?
Answer: AC50 [2]: 9.46 µM (active); AC50 [3]: 33.6 µM (active); AC50 [5]: 39.9 µM (active); AC50 [8]: 0.363 µM (active)

Question: Which AC50 [9] does the source give for `CCCNC(=O)N1[C@H](C#N)[C@H](c2ccc(C#Cc3cccc(F)c3)cc2)[C@H]1CO` here?
Answer: 0.00355 µM (active)

Question: And the AC50 [10]?
Answer: < 0.3 µM (active)

Question: What about the AC50 [11] of the same molecule?
Answer: 0.0243 µM (active)

Question: And the AC50 [12]?
Answer: 8.92 µM (active)

Question: And the AC50 [13]?
Answer: 0.00951 µM (active)

Question: What about the AC50 [14] of the same molecule?
Answer: 0.00678 µM (active)

Question: Which results are given for `O=C(NC1=C(c2ccc(OC(F)(F)F)cc2)C(=O)c2ccccc2C1=O)c1ccc(Br)cc1`?
Answer: AC50 [15]: 36.5 µM (active); AC50 [16]: 41.1 µM (active)

Question: Which EC50 [17] does the source give for `CS(=O)(=O)N(CC(=O)NC1CCCCC1)c1cc(C(F)(F)F)ccc1Cl` here?
Answer: 10 µM (inconclusive)

Question: With `CC(C(=O)Nc1ccc(Cl)cn1)N(c1ccccc1Cl)S(C)(=O)=O` (stereo unspecified) as the molecule, how does the EC50 [17] read?
Answer: > 30 µM (inactive)

Question: Which IC50 [18] does the source give for `O=C(c1cccc2c1-c1ccccc1/C2=N/O)N1CCCCC1` here?
Answer: 40.7 µM (not active)

Question: Which AC50 [9] does the source give for `COc1ccc(-c2ccc([C@H]3[C@@H](C#N)N(C(=O)NC4CCCC4)[C@@H]3CO)cc2)cc1` here?
Answer: 0.23 µM (active)

Question: What about the AC50 [10] of the same molecule?
Answer: < 0.3 µM (active)

Question: And the AC50 [11]?
Answer: 0.208 µM (active)

Question: And the AC50 [12]?
Answer: 5.29 µM (active)

Question: What about the AC50 [19] of the same molecule?
Answer: > 39 µM (inactive)

Question: What about the AC50 [20] of the same molecule?
Answer: 81.4 µM (active)

Question: What about the AC50 [14] of the same molecule?
Answer: 0.248 µM (active)

Question: Which AC50 [15] does the source give for `CC(=O)NC1=C(c2cccc(Cl)c2)C(=O)c2ccccc2C1=O` here?
Answer: 7.22 µM (active)

Question: And the AC50 [16]?
Answer: 14.4 µM (active)
